Common to all, as to assay type: cell-based, rat
Data set [1] has as its system TGF-β1-activated HSC-T6 cells. As to the kind of experiment: ROS detection assay (DCFDA). The settings on record: HSC-T6, TGF-β1, CX 10-100 μM, with increasing doses. As to the method: (§1) The procedure of cell cultures is as follows. HSC-T6 cell is an immortalized cell line isolated from transformed SV40 large T-antigen transformed primary stellate cells of male Sprague-Dawley rats. HSC-T6 cells were maintained in Dulbecco's Modified Eagle Medium (DMEM, Sigma-Aldrich, USA) containing 8% fetal bovine serum (FBS, HyClone, USA), 100 U/mL of penicillin, and 100 μg/mL of streptomycin (Gibco, USA).
(§2) For hepatic stellate cell (HSC) activation, cells were cultured for 24 h and then replaced with serum-free medium for 24 h, after that, treated with transforming growth factor beta 1 (TGF-β1) (10 ng/mL) in the presence or absence of CX (10-100 μM) or adlay leaf, root, and seed extracts (25 and 50 μg/mL) for 24 h, or 30 min for intracellular signal pathways.
The procedure of ROS detection assay is as follows. 2′,7′-Dichlorofluorescein diacetate (DCFDA), a cell-permeable fluorogenic probe, is usually used to detect ROS and nitric oxide in live cells. DCFDA rapidly de-esterifies to form fluorescent 2′,7′-dichlorofluorescein (DCF) when it is oxidized by ROS in cells. For ROS detection, cells were seeded in the 96-well plate for 24 h, then starvation (culture in serum-free medium) and drug treatment, followed by changing the medium with DCFDA solution for 30 min, and detecting the excitation/emission spectra of 485/525 nm by multimode microplate readers (TECAN, Switzerland).

Data set [2] relates to TGF-β1-activated HSC-T6 cells. The experiment in a line: Real-time PCR of inflammatory factors. The settings on record: HSC-T6, TGF-β1 10 ng/mL, 24 h.
From the text: The procedure of real-time PCR analysis is as follows. Total RNA was extracted with the Trizol reagent (Ambion, USA) and then reverse-transcribed into cDNA with RevertAid First Strand cDNA Synthesis kit (Thermo Scientific, USA). The PCR amplification was accomplished with SYBR Green PCR Master Mix (Applied Biosystems, USA), and the mRNA expression of the gene was normalized to GAPDH. All primers were obtained from Genomics (Genomics, Taiwan). Rat primer sequences are used for real-time PCR of HSC-T6 cells, and mouse primer sequences are used for real-time PCR of C57BL/6J mice.
as §1, §2
(Quantitative PCR measures a nucleic acid by following its amplification.)

In data set [3] the test system is TGF-β1-activated HSC-T6 cells. The experiment in a line: Western blot of fibrotic and EMT-related proteins. The settings on record: HSC-T6, TGF-β1 10 ng/mL, 24 h. As to the method: as §1, §2
(§3) The procedure of Western blot analysis is as follows. Cells were lysed in RIPA buffer with protease inhibitor and then centrifuged at 4° C., 12000 rpm for 10 min. Collected the supernatant and quantified the total protein concentration to 50 μg. After heating at 95° C. for 10 min, the protein samples were separated by SDS-PAGE gel, transferred to PVDF membrane, followed by blocking with 6% milk, incubated with primary antibodies at 4° C., overnight and secondary antibodies at room temperature for 1 h. Blot images were visualized on Amersham Imager 680 (Cytiva, USA) with ECL agent (GeneDireX, USA).
Background: In western blotting, separated proteins are transferred to a membrane and probed.

Another data set relates to HSC-T6 cells. The experiment in a line: MTT cell viability assay. The settings on record: 0-800 μM, 24 h. As to the method: as §1
The procedure of cell viability assay is as follows. HSC-T6 cells were seed at 1.5×10^4 in 96-well plates and were incubated with CX (0-800 μM) or adlay extracts (0-800 μg/mL) for 24 h. Followed by the determination of cell viability with MTT [3-(4,5-Dimethyl-2-thiazolyl)-2,5-diphenyl-2H-tetrazolium bromide] (Sigma-Aldrich, USA). Briefly, MTT was added to each well at a final concentration of […] and was incubated at 37° C. for 1 h. Next, removed the MTT and added the DMSO to dissolve MTT-formazan crystals formed by metabolically viable cells. Finally, the absorbance of each well was detected by a spectrophotometer at the wavelength of 570 nm.
Background: Tetrazolium dyes change colour on reduction, which living cells bring about.

For data set [4], the system named is PI3K and ERK signaling pathway. As to the kind of experiment: Western blot of PI3K and ERK signaling pathway. The settings on record: TGF-β1-activated HSC-T6 cells, CX. As to the method: as §1, §2, §3

Molecules are shown by their SMILES.

Regarding `COc1ccc2[nH]c(=O)oc2c1` [CX, 6-methoxybenzoxazolinone], in data set [1], the “TGF-β1-induced ROS levels (DCFDA)” value is on record as “reduced”. Moreover, in data set [2] (CX 10, 20, 50, 100 μM), the “TGF-β1-induced IL-6 mRNA level” value is given as “dose-dependently decreased” and the “TGF-β1-induced TNF-α mRNA level” value is “dose-dependently decreased”. Besides, in data set [2] (CX at the highest dose (100 μM)), the “IL-10 mRNA level” value is recorded as “significantly increased”. Also, in data set [3] (CX 10-100 μM), the “TGF-β1-induced COL1A1 expression (Western blot)” value was “reduced”, the “TGF-β1-induced fibronectin expression (Western blot)” value is on record as “reduced” and the “TGF-β1-induced α-SMA expression (Western blot)” value is reported as “reduced”. For the same compound, in data set [3] (CX even at the lowest dose (10 μM)), the “E-cadherin expression (Western blot)” value is reported as “significantly enhanced”. Besides, the “dose with no significant effects on cell viability” value in the data set with HSC-T6 cells was “below 400 μM”. Besides, in data set [4], the “phosphorylation of ERK (p-ERK1/2, Western blot)” value is listed as “did not cause significant changes” and the “phosphorylation of PI3K (p-PI3K, Western blot)” value is on record as “did not cause significant changes”.

Values taken from patent publication US20250017907A1, “METHOD FOR PREVENTING AND/OR TREATING LIVER FIBROSIS BY USING 6-METHOXYBENZOXAZOLINONE AND COIX LACHRYMA-JOBI L. EXTRACT COMPRISING 6-METHOXYBENZOXAZOLINONE” (Taichung District Agricultural Research and Extension …, priority 2023, published 2025).
